Measurements taken from patent US10487219B2, “Method and compositions for cleaning cooking range exhaust systems” (NOVAPHARM RESEARCH (AUSTRALIA) PTY LTD, priority 2015, dated 2019).

Test: Biocide migration test: biocide in strippable PV Acetate emulsion coating, film coated with cooking oil for 24 hrs, oil tested for presence of biocide
Type: physicochemical
Details: for Leaching (migration) of the biocide from the coating into the oil: strippable PV Acetate emulsion coating film coated with cooking oil, 24 hrs, oil tested for presence of biocide; for Suitability as oil soluble biocide leaching from the dry film into oils deposited on the film: dry film in situ, oily deposits
Experimental: Initially biocides were selected for trial on the basis that they would be innocuous in a food preparation area. Many of those initially tested are food grade or similar low toxicity biocides. Biocides were tested by incorporating the biocide in the strippable PV Acetate emulsion coating formulation, coating a film of the coating with cooking oil and leaving it in place for 24 hrs and then testing the oil for presence of Biocide. The leaching of the biocide into the oil is considered a proxy for the ability of the film to prevent microbial degradation of the oily material coated thereon.

| Compound | Leaching (migration) of the biocide from the coating into the oil | Suitability as oil soluble biocide leaching from the dry film into oils deposited on the film |
| --- | --- | --- |
| CCCCOC(=O)c1ccccc1 [butyl benzoate] | passed the above test |  |
| CCCCOC(=O)c1ccc(O)cc1 [butyl parabens, Butyl Parabens] |  | satisfactory |
| CCOC(=O)c1ccccc1 [ethylbenzoate] | passed the above test |  |
| COC(=O)c1ccccc1 [methyl benzoate] | passed the above test |  |
| OCCOc1ccccc1 [phenoxyethanol, Phenoxyethanol] |  | ineffective |
| CCCOC(=O)c1ccccc1 [propyl benzoate] | passed the above test |  |
